{"source": "patent US20210139484A1", "about": "“DIHYDROISOQUINOLINE-2(1H)-CARBOXAMIDE AND RELATED COMPOUNDS AND THEIR USE IN TREATING MEDICAL CONDITIONS” (GOSSAMER BIO SERVICES, INC., priority 2018, published 2021)", "target": "T1, human HPK1 protein (Homo sapiens, UniProt Q92918)", "T1 construct": "recombinant human HPK1 protein (a.a. 1-346) was expressed in Sf9 insect cells; GST (N); purchased Signalchem M23-11G; host or cells: Sf9 insect cells (baculovirus)", "T1 sequence (Q92918 1-346)": "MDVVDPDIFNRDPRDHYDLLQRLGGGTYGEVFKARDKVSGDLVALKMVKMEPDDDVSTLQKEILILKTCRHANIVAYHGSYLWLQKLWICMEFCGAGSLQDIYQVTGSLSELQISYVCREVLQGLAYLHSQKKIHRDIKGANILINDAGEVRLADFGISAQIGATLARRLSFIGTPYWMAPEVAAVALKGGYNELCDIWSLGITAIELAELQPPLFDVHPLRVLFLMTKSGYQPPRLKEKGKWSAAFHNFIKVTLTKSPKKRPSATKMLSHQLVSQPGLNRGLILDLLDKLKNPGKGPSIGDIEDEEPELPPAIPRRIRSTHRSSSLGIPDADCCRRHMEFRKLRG", "test": "Human HPK1 protein TR-FRET assay", "assay_type": "biochemical", "conditions": "1 mM ATP, Table 19", "experimental": "Exemplary compounds from the above Examples were tested for ability to inhibit HPK1 using a human HPK1 protein TR-FRET Assay. Assay procedures and results are described below.\nN-terminal GST-tagged recombinant human HPK1 protein (a.a. 1-346) was expressed in Sf9 insect cells using a baculovirus expression system (Signalchem Catalog #M23-11G). The enzyme was diluted in assay buffer (50 mM Tris pH 7.5, 1 mM MgCl2, 0.01% NP-40 and 2 mM DTT) to obtain a 4× working solution at a concentration of 40 nM HPK1 enzyme.\nA 5 μM stock of ULight™ CREBtide peptide RRPSYRK (Perkin Elmer Product No. TRF0107-M) derived from human cAMP Response Element Binding (CREB) Protein was prepared in storage buffer containing 50 mM Tris-HCl (pH 7.4), 0.9% NaCl, 0.1% BSA, and 0.05% sodium azide. The CREBtide substrate was diluted in assay buffer (50 mM Tris pH 7.5, 1 mM MgCl2, 0.01% NP-40, 2 mM DTT) with 2 mM ATP to a final concentration of 200 nM CREBtide peptide to obtain a 2× working solution of substrate. HPK1 enzyme and CREBtide substrate solutions were mixed with compounds diluted in DMSO to obtain a final concentration of enzyme, substrate, and ATP of 10 nM, 100 nM, and 1 mM, respectively, in 1% DMSO. The final assay mixture was incubated at room temperature for 60 minutes.\nA solution of Europium-labeled anti-phospho-CREB (Ser133) antibody (Perkin Elmer Product No. TRF0200-M), EDTA and LANCE™ Detection Buffer (Perkin Elmer Product No. CR97-100) were added to each well to obtain a final concentration of 2 nM antibody, 10 mM EDTA and 1× LANCE buffer. The resulting mixture was incubated at room temperature for 60 minutes.\nThe fluorescence resonance energy transfer (FRET) signal was measured on an Envision plate reader: Excitation filter=340 nm, APC emission=665 nm, Europium emission=615 nm, dichroic mirror=D400/D630, delay time=100 μs, and integration time=200 μs. The half maximal inhibitory concentration (IC50) values for compounds were calculated from the quotient of the fluorescence signal at 665 nm divided by the fluorescence signal at 615 nm. The quotient of the fluorescence signals in the presence of DMSO without compound is set as 100 percent enzymatic activity. A 4-parameter logistic model in PRISM (GraphPad) was used to calculate the IC50 for a given compound.", "data": [{"smiles": "CCN1CCN(Cc2ccc(NC(=O)N3Cc4cc(Oc5ccnc6[nH]c(C)cc56)c(F)cc4C(C)C3)cc2C(F)(F)F)CC1", "note": "(stereo not drawn) [IV-27]", "values": [{"measurement": "IC50", "result": "< 0.5", "unit": "µM"}]}, {"smiles": "CCN1CCN(Cc2ccc(NC(=O)N3Cc4cc(Oc5ccnc6[nH]c(C)cc56)c(F)cc4C(C)C3)cc2C(F)(F)F)CC1", "note": "(stereo not drawn) [IV-28]", "values": [{"measurement": "IC50", "result": "< 0.5", "unit": "µM"}]}, {"smiles": "CCN1CCN(Cc2ccc(NC(=O)N3Cc4cc(Oc5ccnc6[nH]c(C)cc56)c(F)cc4C(C)C3)cc2C(F)(F)F)CC1", "note": "(stereo not drawn) [IV-29]", "values": [{"measurement": "IC50", "result": "< 0.5", "unit": "µM"}]}, {"smiles": "CCN1CCN(Cc2ccc(NC(=O)N3CCc4cc(F)c(Oc5ccnn6cccc56)cc4C3C)cc2C(F)(F)F)CC1", "note": "(stereo not drawn) [IV-30]", "values": [{"measurement": "IC50", "result": "0.5 to 5", "unit": "µM"}]}, {"smiles": "CCN1CCN(Cc2ccc(NC(=O)N3CCc4cc(F)c(Oc5ccnn6cccc56)cc4C3C)cc2C(F)(F)F)CC1", "note": "(stereo not drawn) [IV-31]", "values": [{"measurement": "IC50", "result": "< 0.5", "unit": "µM"}]}, {"smiles": "CCN1CCN(Cc2ccc(NC(=O)N3CCc4cc(F)c(Oc5ccnn6cccc56)cc4C3C)cc2C(F)(F)F)CC1", "note": "(stereo not drawn) [IV-32]", "values": [{"measurement": "IC50", "result": "> 10", "unit": "µM"}]}, {"smiles": "CCN1CCN(Cc2ccc(NC(=O)N3CCc4cc(F)c(Oc5ncnn6cccc56)cc4C3C)cc2C(F)(F)F)CC1", "note": "(stereo not drawn) [IV-33]", "values": [{"measurement": "IC50", "result": "< 0.5", "unit": "µM"}]}, {"smiles": "CCN1CCN(Cc2ccc(NC(=O)N3CCc4cc(F)c(Oc5ncnn6cccc56)cc4C3C)cc2C(F)(F)F)CC1", "note": "(stereo not drawn) [IV-34]", "values": [{"measurement": "IC50", "result": "> 10", "unit": "µM"}]}, {"smiles": "CCN1CCN(Cc2ccc(NC(=O)N3CCc4cc(F)c(Oc5ncnn6cccc56)cc4C3C)cc2C(F)(F)F)CC1", "note": "(stereo not drawn) [IV-35]", "values": [{"measurement": "IC50", "result": "< 0.5", "unit": "µM"}]}, {"smiles": "CCN1CCN(Cc2ccc(NC(=O)N3Cc4cc(Oc5ccnc6[nH]c(C)cc56)ccc4C(C(C)C)C3)cc2C(F)(F)F)CC1", "note": "(stereo not drawn) [IV-36]", "values": [{"measurement": "IC50", "result": "< 0.5", "unit": "µM"}]}, {"smiles": "CCCC1CN(C(=O)Nc2ccc(CN3CCN(CC)CC3)c(C(F)(F)F)c2)Cc2cc(Oc3ccnc4[nH]c(C)cc34)ccc21", "note": "(stereo not drawn) [IV-37]", "values": [{"measurement": "IC50", "result": "< 0.5", "unit": "µM"}]}, {"smiles": "Cc1cc2c(Oc3ccc4c(c3)CN(C(=O)Nc3cnc(OC5CCN(C)CC5)c(C(F)(F)F)c3)CC4C)ccnc2[nH]1", "note": "(stereo not drawn) [IV-38]", "values": [{"measurement": "IC50", "result": "< 0.5", "unit": "µM"}]}, {"smiles": "Cc1cc2c(Oc3ccc4c(c3)CN(C(=O)Nc3cnc(OC5CCN(C)CC5O)c(C(F)(F)F)c3)CC4C)ccnc2[nH]1", "note": "(stereo not drawn) [IV-41]", "values": [{"measurement": "IC50", "result": "< 0.5", "unit": "µM"}]}, {"smiles": "C[C@H]1c2cc(Oc3ccnc4[nH]ccc34)ccc2CCN1C(=O)Nc1ccc(CN2CCNCC2)c(C(F)(F)F)c1", "note": "[V-1]", "values": [{"measurement": "IC50", "result": "< 0.5", "unit": "µM"}]}, {"smiles": "C[C@H]1c2cc(Oc3ccnc4[nH]ccc34)ccc2CCN1C(=O)Nc1ccc(CN2CCN(C)CC2)c(C(F)(F)F)c1", "note": "[V-2]", "values": [{"measurement": "IC50", "result": "< 0.5", "unit": "µM"}]}, {"smiles": "CCN1CCN(Cc2ccc(NC(=O)N3CCc4ccc(Oc5ccnc6[nH]ccc56)cc4[C@@H]3C)cc2Cl)CC1", "note": "[V-3]", "values": [{"measurement": "IC50", "result": "< 0.5", "unit": "µM"}]}, {"smiles": "CCN1CCN(Cc2ccc(NC(=O)N3CCc4ccc(Oc5ccnc6[nH]ccc56)cc4[C@@H]3C)cc2C(F)F)CC1", "note": "[V-4]", "values": [{"measurement": "IC50", "result": "< 0.5", "unit": "µM"}]}, {"smiles": "CCN1CCN(Cc2ccc(NC(=O)N3CCc4ccc(Oc5ccnc6[nH]ncc56)cc4[C@@H]3C)cc2C(F)(F)F)CC1", "note": "[V-5]", "values": [{"measurement": "IC50", "result": "< 0.5", "unit": "µM"}]}, {"smiles": "CCN1CCN(Cc2ccc(NC(=O)N3CCc4ccc(Oc5ccnn6cccc56)cc4[C@@H]3C)cc2C(F)(F)F)CC1", "note": "[V-6]", "values": [{"measurement": "IC50", "result": "< 0.5", "unit": "µM"}]}, {"smiles": "CCN1CCN(Cc2ccc(NC(=O)N3CCc4ccc(Oc5ccnn6cc(-c7cnn(C)c7)cc56)cc4[C@@H]3C)cc2C(F)(F)F)CC1", "note": "[V-7]", "values": [{"measurement": "IC50", "result": "< 0.5", "unit": "µM"}]}, {"smiles": "CCN1CCN(Cc2ccc(NC(=O)N3CCc4ccc(Oc5ccnn6cc(C#N)cc56)cc4[C@@H]3C)cc2C(F)(F)F)CC1", "note": "[V-8]", "values": [{"measurement": "IC50", "result": "< 0.5", "unit": "µM"}]}, {"smiles": "CCN1CCN(Cc2ccc(NC(=O)N3CCc4ccc(Oc5ncnn6cc(C#N)cc56)cc4[C@@H]3C)cc2C(F)(F)F)CC1", "note": "[V-9]", "values": [{"measurement": "IC50", "result": "< 0.5", "unit": "µM"}]}, {"smiles": "CCN1CCN(Cc2ccc(NC(=O)N3CCc4ccc(Oc5ccnc6[nH]c(C#N)cc56)cc4[C@@H]3C)cc2C(F)(F)F)CC1", "note": "[V-10]", "values": [{"measurement": "IC50", "result": "< 0.5", "unit": "µM"}]}, {"smiles": "CCN1CCN(Cc2ccc(NC(=O)N3CCc4ccc(Oc5ccnc(C#N)c5)cc4[C@@H]3C)cc2C(F)(F)F)CC1", "note": "[V-11]", "values": [{"measurement": "IC50", "result": "0.5 to 5", "unit": "µM"}]}, {"smiles": "CCN1CCN(Cc2ccc(NC(=O)N3CCc4ccc(Oc5ccnc(C(N)=O)c5)cc4[C@@H]3C)cc2C(F)(F)F)CC1", "note": "[V-12]", "values": [{"measurement": "IC50", "result": "0.5 to 5", "unit": "µM"}]}, {"smiles": "CCN1CCN(Cc2ccc(NC(=O)N3CCc4ccc(Oc5ccnc(C(=O)NC)c5)cc4[C@@H]3C)cc2C(F)(F)F)CC1", "note": "[V-13]", "values": [{"measurement": "IC50", "result": "< 0.5", "unit": "µM"}]}, {"smiles": "C[C@H]1c2cc(Oc3ccnc4[nH]ccc34)ccc2CCN1C(=O)Nc1ccc(OC2CCNCC2)c(C(F)F)c1", "note": "[V-14]", "values": [{"measurement": "IC50", "result": "0.5 to 5", "unit": "µM"}]}]}
